Patent publication US12508259B2, “Pharmaceutical formulations containing Nalbuphine” (Humanwell Pharmaceutical US, Inc., priority 2022, dated 2025)
In brackets after ≈: the same amount, converted by molar mass. Structures can show the parent of a compound that is named as a salt. Where two headings read alike, the source gives them in different places.

Assays:
[1] = Nalbuphine solubility in different acids (overnight stirring, HPLC); assay type: physicochemical; conditions: approx. 0.5 mmol/mL acid; for solubility: aqueous buffer, thermodynamic from solid, Nalbuphine base Solubility
Description: A preliminary assessment of Nalbuphine solubility in different acids was performed. After overnight continuous stirring, the suspensions were centrifuged, and supernatants were filtered through a 0.2 μm filter.

[2] = commercially available Nalbuphine hydrochloride; cited from earlier work

Compound | solubility ([1]; DL-malic acid solution, in DL-Malic acid) | solubility ([1]; acetic acid solution, in Acetic acid) | solubility ([1]; citric acid solution, in Citric acid) | solubility ([1]; hydrochloric acid solution, in Hydrochloride acid) | Nalbuphine base Solubility ([1]; in Citric acid) | Nalbuphine base Solubility ([1]; in Sulfuric acid) | solubility ([1]; lactic acid solution, in Lactic acid) | solubility ([1]; phosphoric acid solution, in Phosphoric acid) | solubility ([1]; succinic acid solution, in Succinic acid) | solubility ([1]; sulfuric acid solution, in Sulfuric acid) | solubility ([1]; tartaric acid solution, in Tartaric acid) | solubility [2]
Oc1ccc2c3c1O[C@H]1[C@@H](O)CC[C@@]4(O)[C@@H](C2)N(CC2CCC2)CC[C@]314 [Nalbuphine base, N-cyclobutylmethyl-14-hydroxydihydronormorphine] | 630 mM (≈ 225 mg/mL) | 420 mM (≈ 150 mg/mL) | > 1000 mM | 90 mM (≈ 32.2 mg/mL) | 1070 mM | ~1120 mM | 460 mM (≈ 164 mg/mL) | 530 mM (≈ 189 mg/mL) | 480 mM (≈ 172 mg/mL) | > 1000 mM | 930 mM (≈ 332 mg/mL) | –
Oc1ccc2c3c1O[C@H]1[C@@H](O)CC[C@@]4(O)[C@@H](C2)N(CC2CCC2)CC[C@]314 [Nalbuphine hydrochloride] | – | – | – | – | – | – | – | – | – | – | – | approximately 30 mg/mL
